Laboratory results from ChEMBL document CHEMBL1129860, “Studies on penam sulfones III. Synthesis and -lactamase inhibitory activity of sodium (6R)-6-(-hydroxybenzyl)-2-methoxyiminomethyl-2-methylpenam-3-carboxylate 1,1-dioxide and sodium 2-acyl-2-methylpenam-3-carboxylate 1,1-dioxide” (1997).

Assays:
Klebsiella aerogenes [1] = experiment: In vitro minimal inhibitory concentration (MIC) of compound in combination with Ceftazidime (CAZ) showed synergic activity against Enterobacter aerogenes S-97; type: functional
Pseudomonas aeruginosa [2] = experiment: microbe, parasite or virus in culture
Pseudomonas aeruginosa [3] = experiment: microbe, parasite or virus in culture; remark: listed apart in the source
Enterobacter cloacae [4] = experiment: In vitro minimal inhibitory concentration (MIC) of compound in combination with Ceftazidime (CAZ) showed synergic activity against Enterobacter cloacae S-11; type: functional
Enterobacter cloacae [5] = experiment: In vitro minimal inhibitory concentration (MIC) of compound in combination with Ceftazidime (CAZ) showed synergic activity against Enterobacter cloacae S-65; type: functional
Morganella morganii [6] = experiment: In vitro minimal inhibitory concentration (MIC) of compound in combination with Ceftazidime (CAZ) showed synergic activity against Morganella morganii 36030; type: functional
Morganella morganii [7] = experiment: In vitro minimal inhibitory concentration (MIC) of compound in combination with Ceftazidime (CAZ) showed synergic activity against Morganella morganii 36014; type: functional
Escherichia coli [8] = experiment: In vitro minimal inhibitory concentration (MIC) of compound in combination with Ceftazidime (CAZ) showed synergic activity against Escherichia coli TEM 3; type: functional
Escherichia coli [9] = experiment: In vitro minimal inhibitory concentration (MIC) of compound in combination with Ceftazidime (CAZ) showed synergic activity against Escherichia coli TEM 7; type: functional
Pseudomonas aeruginosa [10] = experiment: In vitro minimal inhibitory concentration (MIC) of compound in combination with Ceftazidime (CAZ) showed synergic activity against Pseudomonas aeruginosa 46220 (DR-2); type: functional
Klebsiella aerogenes [11] = experiment: In vitro minimal inhibitory concentration (MIC) of compound in combination with Ceftazidime (CAZ) showed synergic activity against Enterobacter aerogenes 41006; type: functional
Enterobacter cloacae [12] = experiment: In vitro minimal inhibitory concentration (MIC) of compound in combination with Ceftazidime (CAZ) showed synergic activity against Enterobacter cloacae 40011; type: functional
Enterobacter cloacae [13] = experiment: In vitro minimal inhibitory concentration (MIC) of compound in combination with Ceftazidime (CAZ) showed synergic activity against Enterobacter cloacae E40002; type: functional
Citrobacter freundii [14] = experiment: In vitro minimal inhibitory concentration (MIC) of compound in combination with Ceftazidime (CAZ) showed synergic activity against Citrobacter freundii 44032; type: functional
Proteus vulgaris = experiment: In vitro minimal inhibitory concentration (MIC) of compound in combination with Ceftazidime (CAZ) showed synergic activity against Proteus vulgaris CT 106; type: functional
Klebsiella aerogenes [15] = experiment: In vitro minimal inhibitory concentration (MIC) of compound in combination with Ceftazidime (CAZ) showed synergic activity against Enterobacter aerogenes 41003; type: functional
Klebsiella pneumoniae = experiment: In vitro minimal inhibitory concentration (MIC) of compound in combination with Ceftazidime (CAZ) showed synergic activity against Klebsiella pneumoniae CTX 1; type: functional
Klebsiella aerogenes [16] = experiment: In vitro minimal inhibitory concentration (MIC) of compound in combination with Ceftazidime (CAZ) showed synergic activity against Enterobacter aerogenes 41004; type: functional
Enterobacter cloacae [17] = experiment: In vitro minimal inhibitory concentration (MIC) of compound in combination with Ceftazidime (CAZ) showed synergic activity against Enterobacter cloacae P99; type: functional
Citrobacter freundii [18] = experiment: In vitro minimal inhibitory concentration (MIC) of compound in combination with Ceftazidime (CAZ) showed synergic activity against Citrobacter freundii CT 76; type: functional
[19] = Morganella morganii, read-out: MIC

MIC (Klebsiella aerogenes [1]) | MIC (Pseudomonas aeruginosa [2]) | MIC (Pseudomonas aeruginosa [3]) | MIC (Enterobacter cloacae [4]) | MIC (Enterobacter cloacae [5]) | MIC (Morganella morganii [6]) | MIC (Morganella morganii [7]; [19]) | Compound | further results
4 µg/mL | 32 µg/mL | 16 µg/mL | < 0.25 µg/mL | < 0.25 µg/mL | 1 µg/mL | 2 µg/mL | CC(C)(O/N=C(\C(=O)NC1C(=O)N2C(C(=O)[O-])=C(C[n+]3ccccc3)CSC12)c1csc(N)n1)C(=O)O.CO/N=C/[C@@]1(C)[C@H](C(=O)[O-])N2C(=O)[C@@H]([C@@H](O)c3ccccc3)[C@H]2S1(=O)=O.[Na+] (stereo not drawn) | –
0.5 µg/mL | 32 µg/mL | 16 µg/mL | < 0.25 µg/mL | < 0.25 µg/mL | < 0.25 µg/mL | < 0.25 µg/mL | CC(C)(O/N=C(\C(=O)NC1C(=O)N2C(C(=O)[O-])=C(C[n+]3ccccc3)CSC12)c1csc(N)n1)C(=O)O.CO/N=C/[C@@]1(C)[C@H](C(=O)[O-])N2C(=O)CC2S1(=O)=O.[Na+] (stereo not drawn) | –
– | – | – | – | – | – | – | CC(=O)[C@@]1(C)[C@H](C(=O)[O-])N2C(=O)CC2S1(=O)=O.CC(C)(O/N=C(\C(=O)NC1C(=O)N2C(C(=O)[O-])=C(C[n+]3ccccc3)CSC12)c1csc(N)n1)C(=O)O.[Na+] (stereo not drawn) | MIC (Escherichia coli [8]): 0.39 µg/mL; MIC (Escherichia coli [9]): 0.39 µg/mL; MIC (Pseudomonas aeruginosa [10]): 6.25 µg/mL; MIC (Klebsiella aerogenes [11]): 12.5 µg/mL; MIC (Enterobacter cloacae [12]): 1.56 µg/mL; MIC (Enterobacter cloacae [13]): 12.5 µg/mL; MIC (Citrobacter freundii [14]): 12.5 µg/mL; MIC (Proteus vulgaris): 1.56 µg/mL; MIC (Klebsiella aerogenes [15]): 1.56 µg/mL; MIC (Klebsiella pneumoniae): 1.56 µg/mL; MIC (Klebsiella aerogenes [16]): 1.56 µg/mL; MIC (Morganella morganii [7]): ≤ 0.2 µg/mL; MIC (Enterobacter cloacae [17]): 6.25 µg/mL; MIC (Citrobacter freundii [18]): 12.5 µg/mL
